Tested on: MV-4-11 cells
Assay: Gene expression microarray analysis (Affymetrix PrimeView) and GSEA
Type: cell-based, human
Design: RFU PODN (11730768_x_at) / Fold change /veh PODN (11730768_x_at) / RFU LINC00158 (11744669_a_at) / Fold change /veh LINC00158 (11744669_a_at) / RFU DUSP10 (11751237_a_at) / Fold change /veh DUSP10 (11751237_a_at) / RFU ID3 (11757404_x_at) / Fold change /veh ID3 (11757404_x_at) / RFU PLEKHG5 (11737974_s_at) / Fold change /veh PLEKHG5 (11737974_s_at) / RFU LRRC4B (11730491_at) / Fold change /veh LRRC4B (11730491_at) / RFU GIMAP4 (11747438_a_at) / Fold change /veh GIMAP4 (11747438_a_at) / RFU KRT8 (11758183_x_at) / Fold change /veh KRT8 (11758183_x_at) / RFU CNN1 (11734310_a_at) / Fold change /veh CNN1 (11734310_a_at) / RFU VPS37D (11726825_at) / Fold change /veh VPS37D (11726825_at) / RFU C10orf10 (11716522_x_at) / Fold change /veh C10orf10 (11716522_x_at) / RFU KIR2DL2 /// KIR2DL4 /// KIR2DL5A /// KIR2DL5B /// KIR2DS1 /// KIR2DS2 /// KIR2DS3 /// KIR2DS4 /// KIR3DL3 /// KIR3DL3 /// KIR3DS1 (11738374_at) / Fold change /veh KIR2DL2 /// KIR2DL4 /// KIR2DL5A /// KIR2DL5B /// KIR2DS1 /// KIR2DS2 /// KIR2DS3 /// KIR2DS4 /// KIR3DL3 /// KIR3DL3 /// KIR3DS1 (11738374_at) / RFU C1QL1 (11718748_at) / Fold change /veh C1QL1 (11718748_at) / RFU TMPRSS4 (11747572_a_at) / Fold change /veh TMPRSS4 (11747572_a_at) / RFU HAMP (11756126_x_at) / Fold change /veh HAMP (11756126_x_at) / RFU RNFT2 (11725882_a_at) / Fold change /veh RNFT2 (11725882_a_at) / RFU NR4A2 (11747474_a_at) / Fold change /veh NR4A2 (11747474_a_at) / RFU ABCC12 (11746883_a_at) / Fold change /veh ABCC12 (11746883_a_at) / RFU TMEM136 (11760407_x_at) / Fold change /veh TMEM136 (11760407_x_at) / RFU CLDN22 /// WWC2 (11732394_at) / Fold change /veh CLDN22 /// WWC2 (11732394_at) / RFU HLA-DPB1 (11760878_x_at) / Fold change /veh HLA-DPB1 (11760878_x_at) / RFU SPINT1 (11716480_a_at) / Fold change /veh SPINT1 (11716480_a_at) / RFU GAP43 (11754022_s_at) / Fold change /veh GAP43 (11754022_s_at) / RFU A4GNT (11735810_at) / Fold change /veh A4GNT (11735810_at) / RFU PRB3 (11715151_x_at) / Fold change /veh PRB3 (11715151_x_at) / RFU TUBB4B (11761932_at) / Fold change /veh TUBB4B (11761932_at) / RFU CAPN14 (11732068_a_at) / Fold change /veh CAPN14 (11732068_a_at) / RFU TMCC2 (11721928_a_at) / Fold change /veh TMCC2 (11721928_a_at) / RFU IRGQ (11745062_a_at) / Fold change /veh IRGQ (11745062_a_at) / RFU FAM174B (11720279_a_at) / Fold change /veh FAM174B (11720279_a_at) / RFU TMPRSS4 (11748680_a_at) / Fold change /veh TMPRSS4 (11748680_a_at) / RFU FAM212B (11763350_a_at) / Fold change /veh FAM212B (11763350_a_at) / RFU PLEKHG5 (11743358_a_at) / Fold change /veh PLEKHG5 (11743358_a_at) / RFU ZSCAN30 (11745921_a_at) / Fold change /veh ZSCAN30 (11745921_a_at) / RFU CMKLR1 (11741424_a_at) / Fold change /veh CMKLR1 (11741424_a_at) / RFU LOC101060620 /// MAPK8IP1 (11723275_at) / Fold change /veh LOC101060620 /// MAPK8IP1 (11723275_at) / RFU SPTSSB (11747773_x_at) / Fold change /veh SPTSSB (11747773_x_at) / RFU PRSS12 (11739890_at) / Fold change /veh PRSS12 (11739890_at) / RFU BIN1 (11741810_x_at) / Fold change /veh BIN1 (11741810_x_at) / RFU WNT11 (11732464_a_at) / Fold change /veh WNT11 (11732464_a_at) / RFU C10orf10 (11716521_a_at) / Fold change /veh C10orf10 (11716521_a_at) / RFU C5orf56 (11738089_at) / Fold change /veh C5orf56 (11738089_at) / RFU CYB561 (11721691_x_at) / Fold change /veh CYB561 (11721691_x_at) / RFU ANKRD19P (11752326_a_at) / Fold change /veh ANKRD19P (11752326_a_at) / RFU OR2T12 /// OR2T33 /// OR2T8 (11738714_s_at) / Fold change /veh OR2T12 /// OR2T33 /// OR2T8 (11738714_s_at) / RFU VCAN (11748164_a_at) / Fold change /veh VCAN (11748164_a_at) / RFU JSRP1 (11732532_at) / Fold change /veh JSRP1 (11732532_at) / RFU KRTAP10-11 (11738290_x_at) / Fold change /veh KRTAP10-11 (11738290_x_at) / RFU MYO3A (11730013_a_at) / Fold change /veh MYO3A (11730013_a_at) / RFU EBF3 (11725865_a_at) / Fold change /veh EBF3 (11725865_a_at) / RFU CAMK2N1 (11719241_x_at) / Fold change /veh CAMK2N1 (11719241_x_at) / RFU C5orf56 (11738088_a_at) / Fold change /veh C5orf56 (11738088_a_at) / RFU OLFML3 (11715873_a_at) / Fold change /veh OLFML3 (11715873_a_at) / RFU LOC100653217 /// NTM (11731650_a_at) / Fold change /veh LOC100653217 /// NTM (11731650_a_at) / RFU MAPK11 (11762145_a_at) / Fold change /veh MAPK11 (11762145_a_at) / RFU FIZ1 (11724087_x_at) / Fold change /veh FIZ1 (11724087_x_at) / RFU OASL (11726364_x_at) / Fold change /veh OASL (11726364_x_at) / RFU SOX15 (11748057_x_at) / Fold change /veh SOX15 (11748057_x_at) / RFU CD79A (11719716_a_at) / Fold change /veh CD79A (11719716_a_at) / RFU HIST1H1D (11736915_at) / Fold change /veh HIST1H1D (11736915_at) / RFU CASKIN2 (11723855_a_at) / Fold change /veh CASKIN2 (11723855_a_at) / RFU LOC730098 (11760151_x_at) / Fold change /veh LOC730098 (11760151_x_at) / RFU OR4N2 (11742367_at) / Fold change /veh OR4N2 (11742367_at) / RFU PRRT2 (11749266_a_at) / Fold change /veh PRRT2 (11749266_a_at) / RFU SNX32 (11753110_a_at) / Fold change /veh SNX32 (11753110_a_at) / RFU CDHR5 (11726645_a_at) / Fold change /veh CDHR5 (11726645_a_at) / RFU RCAN1 (11760418_a_at) / Fold change /veh RCAN1 (11760418_a_at) / RFU FAM167A (11723789_a_at) / Fold change /veh FAM167A (11723789_a_at) / RFU FAM26E (11764081_at) / Fold change /veh FAM26E (11764081_at) / RFU ISYNA1 (11749810_s_at) / Fold change /veh ISYNA1 (11749810_s_at) / RFU ACY1 (11761880_at) / Fold change /veh ACY1 (11761880_at) / RFU 11764098_at / Fold change /veh 11764098_at / RFU SAMD14 (11745864_x_at) / Fold change /veh SAMD14 (11745864_x_at) / RFU NPB (11741838_a_at) / Fold change /veh NPB (11741838_a_at) / RFU TMPRSS6 (11731388_a_at) / Fold change /veh TMPRSS6 (11731388_a_at) / RFU KRTAP10-2 (11738614_at) / Fold change /veh KRTAP10-2 (11738614_at) / RFU ARHGAP8 /// PRR5-ARHGAP8 (11727945_x_at) / Fold change /veh ARHGAP8 /// PRR5-ARHGAP8 (11727945_x_at) / RFU KRTAP5-7 /// NADSYN1 (11734609_at) / Fold change /veh KRTAP5-7 /// NADSYN1 (11734609_at) / RFU RASL12 (11751679_a_at) / Fold change /veh RASL12 (11751679_a_at) / RFU CDKN2B (11736163_a_at) / Fold change /veh CDKN2B (11736163_a_at) / RFU PRF1 (11729649_at) / Fold change /veh PRF1 (11729649_at) / RFU, ZNF638 /// ZNF638-IT1 / Fold change vs veh, ZNF638 /// ZNF638-IT1 / RFU, PANK3 / Fold change vs veh, PANK3 / RFU, SH3YL1 / Fold change vs veh, SH3YL1 / RFU, ZEB2 / Fold change vs veh, ZEB2 / RFU, NRIP1 / Fold change vs veh, NRIP1 / RFU, PTTG1IP / Fold change vs veh, PTTG1IP / RFU, CAPN2 / Fold change vs veh, CAPN2 / RFU, MED14 / Fold change vs veh, MED14 / RFU, SNORA58 / Fold change vs veh, SNORA58 / RFU, C1orf63 / Fold change vs veh, C1orf63 / RFU, LRRFIP1 / Fold change vs veh, LRRFIP1 / RFU, NDUFAF7 / Fold change vs veh, NDUFAF7 / RFU, SLC12A2 / Fold change vs veh, SLC12A2 / RFU, IBTK / Fold change vs veh, IBTK / RFU, ESF1 / Fold change vs veh, ESF1 / Fold change vs veh, TMEM50B / RFU, TAOK1 / Fold change vs veh, TAOK1 / RFU, ACBD3 / Fold change vs veh, ACBD3 / RFU, TMA16 / Fold change vs veh, TMA16 / RFU, RWDD3 / Fold change vs veh, RWDD3 / RFU, BCAT1 / Fold change vs veh, BCAT1 / RFU, EDEM3 / Fold change vs veh, EDEM3 / RFU, TMEM33 / Fold change vs veh, TMEM33 / RFU, WDR75 / Fold change vs veh, WDR75 / RFU, AHCTF1 / Fold change vs veh, AHCTF1 / RFU, TFRC / Fold change vs veh, TFRC / RFU, ZDHHC17 / Fold change vs veh, ZDHHC17 / RFU, NOM1 / Fold change vs veh, NOM1 / RFU, ARL8B / Fold change vs veh, ARL8B / RFU, ZBTB11 / Fold change vs veh, ZBTB11 / RFU, TAMM41 / Fold change vs veh, TAMM41 / RFU, KIAA1704 /// LOC100996395 / Fold change vs veh, KIAA1704 /// LOC100996395 / RFU, ING1 / Fold change vs veh, ING1 / RFU, TRMT61B / Fold change vs veh, TRMT61B / RFU, FUBP3 / Fold change vs veh, FUBP3 / RFU, TP53 / Fold change vs veh, TP53 / RFU, TNKS2 / Fold change vs veh, TNKS2 / RFU, ZFP14 / Fold change vs veh, ZFP14 / RFU, ACTR2 / Fold change vs veh, ACTR2 / RFU, PPP3R1 / Fold change vs veh, PPP3R1 / RFU, PIK3R1 / Fold change vs veh, PIK3R1 / RFU, HNRNPA1 / Fold change vs veh, HNRNPA1 / RFU, RNF170 / Fold change vs veh, RNF170 / RFU, ZNF28 / Fold change vs veh, ZNF28 / RFU, RNGTT / Fold change vs veh, RNGTT / RFU, OGT / Fold change vs veh, OGT / RFU, BRD1 / Fold change vs veh, BRD1 / RFU, MARS / Fold change vs veh, MARS / RFU, ZNF655 / Fold change vs veh, ZNF655 / RFU, FAHD1 / Fold change vs veh, FAHD1 / RFU, BDP1 / Fold change vs veh, BDP1 / RFU, LRRCC1 / Fold change vs veh, LRRCC1 / RFU, ARID1A / Fold change vs veh, ARID1A / RFU, ZNF146 / Fold change vs veh, ZNF146 / RFU, ZNF330 / Fold change vs veh, ZNF330 / RFU, GPN3 / Fold change vs veh, GPN3 / RFU, C9orf123 / Fold change vs veh, C9orf123 / RFU, N4BP2L2 / Fold change vs veh, N4BP2L2 / RFU, ARFIP1 / Fold change vs veh, ARFIP1 / RFU, FAM179B / Fold change vs veh, FAM179B / RFU, BCL10 / Fold change vs veh, BCL10 / RFU, UHRF1BP1L / Fold change vs veh, UHRF1BP1L / RFU, BET1 / Fold change vs veh, BET1 / RFU, CNOT2 / Fold change vs veh, CNOT2 / RFU, ZNF268 / Fold change vs veh, ZNF268 / Fold change vs veh, ZNF507 / RFU, DGCR2 / Fold change vs veh, DGCR2 / RFU, WDSUB1 / Fold change vs veh, WDSUB1 / Fold change vs veh, HSP90B1 /// MIR3652 / RFU, ADSS / Fold change vs veh, ADSS / RFU, GK / Fold change vs veh, GK / RFU, ZNF148 / Fold change vs veh, ZNF148 / RFU, TAF9 / Fold change vs veh, TAF9 / RFU, SLC1A5 / Fold change vs veh, SLC1A5 / RFU, SLMO2 / Fold change vs veh, SLMO2 / RFU, ABCC4 / Fold change vs veh, ABCC4 / RFU, LOC101060439 /// RAP1B / Fold change vs veh, LOC101060439 /// RAP1B / RFU, RFX7 / Fold change vs veh, RFX7 / RFU, GTPBP10 / Fold change vs veh, GTPBP10 / RFU, CNEP1R1 / Fold change vs veh, CNEP1R1 / RFU, BIVM-ERCC5 /// ERCC5 / Fold change vs veh, BIVM-ERCC5 /// ERCC5 / RFU, ILF3 / Fold change vs veh, ILF3 / RFU 11762660_at / Fold change /veh 11762660_at / RFU VCAN (11757783_s_at) / Fold change /veh VCAN (11757783_s_at) / RFU DDX43 (11728927_at) / Fold change /veh DDX43 (11728927_at) / RFU KRT8 (11758188_x_at) / Fold change /veh KRT8 (11758188_x_at) / RFU NKD1 (11759106_at) / Fold change /veh NKD1 (11759106_at) / RFU SRD5A1 (11742802_a_at) / Fold change /veh SRD5A1 (11742802_a_at) / RFU TPSAB1 /// TPSB2 (11721975_s_at) / Fold change /veh TPSAB1 /// TPSB2 (11721975_s_at) / RFU GSTM3 (11746129_a_at) / Fold change /veh GSTM3 (11746129_a_at) / RFU IL23R (11737362_x_at) / Fold change /veh IL23R (11737362_x_at) / RFU TMEM51 (11727254_a_at) / Fold change /veh TMEM51 (11727254_a_at) / RFU PIWIL2 (11732686_x_at) / Fold change /veh PIWIL2 (11732686_x_at) / RFU ORM1 (11744905_x_at) / Fold change /veh ORM1 (11744905_x_at) / RFU CCDC152 (11743942_at) / Fold change /veh CCDC152 (11743942_at) / RFU ECM1 (11717891_a_at) / Fold change /veh ECM1 (11717891_a_at) / RFU IL23R (11748794_a_at) / Fold change /veh IL23R (11748794_a_at) / RFU TNFAIP8L3 (11732012_x_at) / Fold change /veh TNFAIP8L3 (11732012_x_at) / RFU MBOAT4 (11741988_at) / Fold change /veh MBOAT4 (11741988_at) / RFU 11764193_at / Fold change /veh 11764193_at / RFU TMEM53 (11763286_at) / Fold change /veh TMEM53 (11763286_at) / RFU MAGEB2 (11727129_at) / Fold change /veh MAGEB2 (11727129_at) / RFU TMEM200A (11744735_a_at) / Fold change /veh TMEM200A (11744735_a_at) / RFU CCDC152 (11751479_a_at) / Fold change /veh CCDC152 (11751479_a_at) / RFU FAM211A (11726209_a_at) / Fold change /veh FAM211A (11726209_a_at) / RFU RGS16 (11746705_a_at) / Fold change /veh RGS16 (11746705_a_at) / RFU VCAN (11755009_s_at) / Fold change /veh VCAN (11755009_s_at) / RFU RHOB (11743442_s_at) / Fold change /veh RHOB (11743442_s_at) / RFU RGS16 (11720943_a_at) / Fold change /veh RGS16 (11720943_a_at) / RFU RGS16 (11720944_at) / Fold change /veh RGS16 (11720944_at) / RFU, VPS4B / Fold change vs veh, VPS4B / RFU, CREB1 / Fold change vs veh, CREB1 / RFU, DNAJC13 / Fold change vs veh, DNAJC13 / RFU, GNAQ / Fold change vs veh, GNAQ / RFU, CDK5R1 / Fold change vs veh, CDK5R1 / RFU, ZRANB3 / Fold change vs veh, ZRANB3 / RFU, CUL4A / Fold change vs veh, CUL4A / RFU, CCNY / Fold change vs veh, CCNY / RFU, UFL1 / Fold change vs veh, UFL1 / RFU, COG3 / Fold change vs veh, COG3 / RFU, DIAPH2 / Fold change vs veh, DIAPH2 / RFU, SKA2 / Fold change vs veh, SKA2 / RFU, AFF3 / Fold change vs veh, AFF3 / RFU, LMF1 / Fold change vs veh, LMF1 / RFU, IPO11 / Fold change vs veh, IPO11 / RFU, DFFB / Fold change vs veh, DFFB / RFU, FOXP1 / Fold change vs veh, FOXP1 / RFU, CARD8 / Fold change vs veh, CARD8 / RFU, STRN3 / Fold change vs veh, STRN3 / RFU, ADK / Fold change vs veh, ADK / RFU, RASSF2 / Fold change vs veh, RASSF2 / RFU, WIPF1 / Fold change vs veh, WIPF1 / RFU, LARP1B / Fold change vs veh, LARP1B / RFU, RASA1 / Fold change vs veh, RASA1 / RFU, RB1 / Fold change vs veh, RB1 / RFU, PPFIA1 / Fold change vs veh, PPFIA1 / RFU, MAT2A / Fold change vs veh, MAT2A / RFU, CCT5 / Fold change vs veh, CCT5 / RFU, WDR92 / Fold change vs veh, WDR92 / RFU, CUX1 / Fold change vs veh, CUX1 / RFU, TTC7A / Fold change vs veh, TTC7A / RFU, TMEM135 / Fold change vs veh, TMEM135 / RFU, DEPTOR / Fold change vs veh, DEPTOR / RFU, CPM / Fold change vs veh, CPM / RFU, DNAJB6 / Fold change vs veh, DNAJB6 / RFU, CACNA2D3 / Fold change vs veh, CACNA2D3 / RFU, DTX4 / Fold change vs veh, DTX4 / RFU, TFCP2 / Fold change vs veh, TFCP2 / RFU, GMCL1 /// GMCL1P1 / Fold change vs veh, GMCL1 /// GMCL1P1 / RFU, AEBP2 / Fold change vs veh, AEBP2 / RFU, SNHG1 /// SNORD22 /// SNORD25 /// SNORD26 /// SNORD27 /// SNORD28 /// SNORD29 /// SNORD31 / Fold change vs veh, SNHG1 /// SNORD22 /// SNORD25 /// SNORD26 /// SNORD27 /// SNORD28 /// SNORD29 /// SNORD31 / Fold change (Aza/veh), C12orf56 (ProbeSet 11735607_a_at) / Fold change (ACY-1035/veh), C12orf56 (ProbeSet 11735607_a_at) / Fold change (Aza/veh), FGFR1OP (ProbeSet 11751329_s_at) / Fold change (ACY-1035/veh), FGFR1OP (ProbeSet 11751329_s_at) / Fold change (Aza/veh), VPS36 (ProbeSet 11739960_a_at) / Fold change (ACY-1035/veh), VPS36 (ProbeSet 11739960_a_at) / RFU SYPL1 (11715823_x_at) / Fold change /veh SYPL1 (11715823_x_at) / RFU IGFBP7 (11715501_s_at) / Fold change /veh IGFBP7 (11715501_s_at) / RFU REEP3 (11722064_at) / Fold change /veh REEP3 (11722064_at) / RFU IGLL1 (11728026_x_at) / Fold change /veh IGLL1 (11728026_x_at): dose or concentration left out as unconfirmed
Conditions: MV-4-11 cells, 48 hours

SMILES: Nc1ccc(-c2cccs2)cc1NC(=O)c1ccc2c(c1)cc(C1CC1)n2CCN1CCOCC1 [ACY-1035]
- Fold change /veh WNT11 (11732464_a_at): 1.11

From article PMC5218480 (PLoS ONE, 2017)
